ChEMBL document CHEMBL4257221, “Peptides comprising non-natural amino acids and methods of making and using the same” (2016)
The source made the active and inactive calls. The calls are words filed in the database; no cut-off is given here. Numbered stars: 1 amine (or outer) side, 2 acyl side, 3 side chain; on linkers, the order of the positions; unused ones are H or OH. Square brackets hold non-standard residues; d marks the D form. Peptide text beside a SMILES is read from it. ξ: configuration not given here. X1 = O=C([C@H]1CCC[C@@H]1N[*:1])[*:2]; X2 = O=C([C@H]1CNC[C@@H]1N[*:1])[*:2]; ξβ3hQ = NC(=O)CCC(N)CC(=O)O; ξβ3hL = CC(C)CC(N)CC(=O)O; ξβ3hK = NCCCCC(N)CC(=O)O; ξβ3hT = CC(O)C(N)CC(=O)O; ξβ3hV = CC(C)C(N)CC(=O)O; βAla = NCCC(=O)O

Columns and labels:
[1] = molecular target: T1, Vasoactive intestinal polypeptide receptor 1 (Homo sapiens, UniProt P32241); assay: Agonist activity at human VIPR1 expressed in CHOK1 cells assessed as intracellular cAMP accumulation after 60 mins by PathHunter assay; format: functional, cell-based
T1 sequence (P32241 whole entry): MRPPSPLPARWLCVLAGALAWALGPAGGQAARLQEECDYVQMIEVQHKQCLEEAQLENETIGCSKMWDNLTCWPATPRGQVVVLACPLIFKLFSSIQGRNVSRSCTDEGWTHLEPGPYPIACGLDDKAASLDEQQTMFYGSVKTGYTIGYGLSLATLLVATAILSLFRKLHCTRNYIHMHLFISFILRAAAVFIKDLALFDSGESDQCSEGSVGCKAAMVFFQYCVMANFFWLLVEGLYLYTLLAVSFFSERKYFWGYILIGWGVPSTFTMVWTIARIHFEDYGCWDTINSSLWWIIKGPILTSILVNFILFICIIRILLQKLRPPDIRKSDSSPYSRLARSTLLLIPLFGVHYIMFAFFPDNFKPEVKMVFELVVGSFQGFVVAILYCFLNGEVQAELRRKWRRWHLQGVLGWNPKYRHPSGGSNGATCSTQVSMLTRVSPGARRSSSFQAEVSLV

[2] = molecular target: T2, Vasoactive intestinal polypeptide receptor 2 (Homo sapiens, UniProt P41587); assay: Agonist activity at human VIPR2 expressed in CHOK1 cells assessed as intracellular cAMP accumulation after 60 mins by PathHunter assay; format: functional, cell-based
T2 sequence (P41587 whole entry): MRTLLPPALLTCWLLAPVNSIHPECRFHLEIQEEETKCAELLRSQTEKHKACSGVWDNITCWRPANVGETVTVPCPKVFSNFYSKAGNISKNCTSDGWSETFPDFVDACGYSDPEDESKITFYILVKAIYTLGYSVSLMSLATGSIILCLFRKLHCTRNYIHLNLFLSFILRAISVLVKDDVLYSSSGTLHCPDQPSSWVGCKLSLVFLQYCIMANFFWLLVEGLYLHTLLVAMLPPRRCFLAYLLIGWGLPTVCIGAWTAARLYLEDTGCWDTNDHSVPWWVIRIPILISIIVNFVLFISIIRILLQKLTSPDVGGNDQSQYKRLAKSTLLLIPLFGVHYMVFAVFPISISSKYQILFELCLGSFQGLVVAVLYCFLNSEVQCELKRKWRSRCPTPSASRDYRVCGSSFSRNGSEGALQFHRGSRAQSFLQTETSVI

Proteinase K = Proteinase K (Engyodontium album, UniProt P06873); assay: Stability of the compound assessed as Tritirachium album proteinase K-mediated compound hydrolysis at 250 uM by HPLC analysis; format: ADME; settings: parengyodontium album
Sequence of Proteinase K (P06873 whole entry): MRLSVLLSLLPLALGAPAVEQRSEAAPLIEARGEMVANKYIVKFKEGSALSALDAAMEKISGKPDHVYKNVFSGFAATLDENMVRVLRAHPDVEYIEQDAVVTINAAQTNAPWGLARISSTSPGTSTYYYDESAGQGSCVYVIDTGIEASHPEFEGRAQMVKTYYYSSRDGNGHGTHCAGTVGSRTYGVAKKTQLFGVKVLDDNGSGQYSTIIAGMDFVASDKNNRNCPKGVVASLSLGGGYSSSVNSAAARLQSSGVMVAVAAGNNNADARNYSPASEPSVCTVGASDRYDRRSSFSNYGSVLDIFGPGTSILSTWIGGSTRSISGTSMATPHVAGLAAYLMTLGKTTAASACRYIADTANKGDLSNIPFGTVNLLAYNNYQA

Dipeptidyl peptidase 4 = Dipeptidyl peptidase 4 (Homo sapiens, UniProt P27487); assay: Stability of the compound assessed as DPP4 (unknown origin)-mediated compound hydrolysis at 250 uM by HPLC analysis; format: ADME
Sequence of Dipeptidyl peptidase 4 (P27487 whole entry): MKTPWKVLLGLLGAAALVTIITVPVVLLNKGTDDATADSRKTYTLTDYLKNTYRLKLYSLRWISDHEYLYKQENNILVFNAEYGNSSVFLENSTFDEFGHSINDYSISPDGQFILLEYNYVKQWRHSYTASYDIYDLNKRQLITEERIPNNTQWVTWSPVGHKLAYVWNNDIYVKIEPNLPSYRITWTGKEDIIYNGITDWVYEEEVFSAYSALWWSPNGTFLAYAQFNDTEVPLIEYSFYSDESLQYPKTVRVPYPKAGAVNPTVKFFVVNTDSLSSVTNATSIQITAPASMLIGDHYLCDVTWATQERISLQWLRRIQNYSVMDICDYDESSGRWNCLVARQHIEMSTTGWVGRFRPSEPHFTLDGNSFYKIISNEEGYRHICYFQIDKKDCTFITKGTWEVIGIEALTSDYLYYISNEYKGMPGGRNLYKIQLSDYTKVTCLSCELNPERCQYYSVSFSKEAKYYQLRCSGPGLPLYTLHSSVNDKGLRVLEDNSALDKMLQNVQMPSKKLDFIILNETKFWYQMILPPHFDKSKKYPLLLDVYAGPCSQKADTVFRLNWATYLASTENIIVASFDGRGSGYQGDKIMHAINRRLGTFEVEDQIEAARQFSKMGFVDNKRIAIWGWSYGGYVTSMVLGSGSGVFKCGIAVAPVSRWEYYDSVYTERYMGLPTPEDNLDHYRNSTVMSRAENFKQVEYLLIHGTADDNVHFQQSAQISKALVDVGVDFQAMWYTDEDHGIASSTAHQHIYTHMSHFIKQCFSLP

Chymotrypsin = Chymotrypsin (Homo sapiens, UniProt Q99895+P17538+P40313+Q6GPI1); assay: Stability of the compound assessed as chymotrypsin (unknown origin)-mediated compound hydrolysis at 250 uM by HPLC analysis; format: ADME
Mus musculus [3] = assay: (§1) Anti-parkinson's activity in MPTP-induced C57BL/6 mouse model of Parkinson's disease receiving adaptive transfer of splenocytes from 15 ug/day/5 days, ip compound treated donor mouse assessed as TH-positive neurons survival rate in substantia nigra measured on day 7 post MPTP intoxication by FJ-C staining based assay (reference value: 24.5%); format: functional
Mus musculus [4] = assay: Stimulation of Treg cells function in C57BL/6 mouse splenocytes assessed as suppression of anti-CD3-stimulated effector T cell proliferation pretreated ip daily for 5 days followed by splenocytes isolation and co-culture with untreated splenocytes at 1:1 ratio; format: functional, organism-based
Mus musculus [5] = assay: Stimulation of Treg cells function in C57BL/6 mouse splenocytes assessed as suppression of anti-CD3-stimulated CD4+/CD25- naive T cells proliferation at 300 ug, ip pretreated daily for 5 days followed by splenocytes isolation and co-culture with CD4+/CD25- naive T cells; format: functional, organism-based
Mus musculus [6] = assay: as §1, with “nigra at 15 ug/day, ip for 5 days” for “nigra”, “relative to control” for “(reference value: 24.5%)”; format: functional
[7] = molecular target: T1, Vasoactive intestinal polypeptide receptor 1; assay: Induction of VIPR1 receptor internalization in CHOK1 cells expressing human VIPR1 by beta-galactosidase reporter gene assay; format: functional, cell-based

SMILES: CC(=O)N[C@@H](Cc1cnc[nH]1)C(=O)N[C@H]1CCC[C@@H]1C(=O)N[C@@H](CC(=O)O)C(=O)N[C@@H](C)C(=O)N[C@H]1CCC[C@@H]1C(=O)N[C@@H](Cc1ccccc1)C(=O)N[C@H](C(=O)N[C@@H](CCC(=O)O)C(=O)N[C@@H](CC(N)=O)C(=O)N[C@@H](Cc1ccc(O)cc1)C(=O)N[C@H](C(=O)N[C@@H](CCCCN)C(=O)N[C@@H](CC(C)C)C(=O)N[C@@H](CCCNC(=N)N)C(=O)N[C@@H](CCCCN)C(=O)N[C@@H](CCC(N)=O)C(=O)N[C@@H](CC(C)C)C(=O)N[C@@H](C)C(=O)N[C@@H](C)C(=O)N[C@H]1CNC[C@@H]1C(=O)N[C@@H](CCCCN)C(=O)N[C@@H](Cc1ccc(O)cc1)C(=O)N[C@H]1CCC[C@@H]1C(=O)N[C@@H](CC(N)=O)C(=O)N[C@@H](CC(=O)O)C(=O)N[C@@H](CC(C)C)C(=O)NC(CCCCN)CC(=O)N[C@@H](CCCCN)C(=O)NCC(=O)NCCC(=O)N[C@H](C(=O)O)[C@@H](C)O)[C@@H](C)O)[C@@H](C)O (stereo partly drawn) (Ac-H[X1]DA[X1]FTENYTKLRKQLAA[X2]KY[X1]NDL[ξβ3hK]KG[βAla]T-OH)
- EC50 [1]: 133 nM
- EC50 [2]: 0.646 nM
- Stability (Proteinase K): Stable
- Stability (Dipeptidyl peptidase 4): Stable
- Stability (Chymotrypsin): Stable

SMILES: CCCC[C@H](NC(=O)[C@H](CCC(N)=O)NC(=O)[C@H](CCCCN)NC(=O)[C@H](CCCNC(=N)N)NC(=O)[C@H](CC(C)C)NC(=O)[C@H](CCCCN)NC(=O)[C@@H](NC(=O)[C@H](Cc1ccc(O)cc1)NC(=O)[C@H](CC(N)=O)NC(=O)[C@H](CCC(=O)OC(=O)[C@H](C)NC(=O)[C@H](CC(=O)O)NC(=O)[C@H](CO)NC(=O)[C@H](Cc1c[nH]cn1)NC(C)=O)NC(=O)[C@@H](NC(=O)[C@H](Cc1ccccc1)NC(=O)[C@@H](N)C(C)C)[C@@H](C)O)[C@@H](C)O)C(=O)N[C@@H](C)C(=O)N[C@@H](C)C(=O)N[C@@H](CCCCN)C(=O)N[C@@H](CCCCN)C(=O)N[C@@H](Cc1ccc(O)cc1)C(=O)N[C@@H](CC(C)C)C(=O)N[C@@H](CC(N)=O)C(=O)NC(=O)[C@@H](NC(=O)CNC(=O)CNC(=O)[C@@H]1CCCCN[C@@H](CC(N)=O)C(=O)N[C@@H](CC(C)C)C(=O)N[C@@H](CCCCN)C(=O)N1)[C@@H](C)O
- Stability (Proteinase K): Stable
- Stability (Dipeptidyl peptidase 4): Stable
- Stability (Chymotrypsin): Stable

SMILES: CC(=O)N[C@@H](Cc1cnc[nH]1)C(=O)N[C@H]1CCC[C@@H]1C(=O)N[C@@H](CC(=O)O)C(=O)N[C@@H](C)C(=O)N[C@H]1CCC[C@@H]1C(=O)N[C@@H](Cc1ccccc1)C(=O)N[C@H](C(=O)N[C@@H](CCC(=O)O)C(=O)N[C@@H](CC(N)=O)C(=O)N[C@@H](Cc1ccc(O)cc1)C(=O)N[C@H](C(=O)N[C@@H](CCCCN)C(=O)N[C@@H](CC(C)C)C(=O)N[C@@H](CCCNC(=N)N)C(=O)N[C@@H](CCCCN)C(=O)NC(CCC(N)=O)CC(=O)N[C@@H](CC(C)C)C(=O)N[C@@H](C)C(=O)N[C@@H](C)C(=O)N[C@H]1CNC[C@@H]1C(=O)N[C@@H](CCCCN)C(=O)N[C@@H](Cc1ccc(O)cc1)C(=O)N[C@H]1CCC[C@@H]1C(=O)N[C@@H](CC(N)=O)C(=O)N[C@@H](CC(=O)O)C(=O)N[C@@H](CC(C)C)C(=O)NC(CCCCN)CC(=O)N[C@@H](CCCCN)C(=O)NCC(=O)NCCC(=O)NC(CC(=O)O)C(C)O)[C@@H](C)O)[C@@H](C)O (stereo partly drawn) (Ac-H[X1]DA[X1]FTENYTKLRK[ξβ3hQ]LAA[X2]KY[X1]NDL[ξβ3hK]KG[βAla][ξβ3hT]-OH)
- Survival (Mus musculus [3]): 79.7%
- Activity (Mus musculus [4]): Dose-dependent effect
- Activity (Mus musculus [5]): Active

SMILES: CC[C@H](C)[C@H](NC(=O)C1CCCN1C(=O)[C@H](CCC(N)=O)NC(=O)[C@H](CC(C)C)NC(=O)[C@H](Cc1ccc(O)cc1)NC(=O)[C@H](CCCCN)NC(=O)[C@H](CCCCN)NC(=O)[C@H](C)NC(=O)C1CCCN1C(=O)[C@@H](NC(=O)[C@H](CCC(N)=O)NC(=O)C1CCCN1C(=O)[C@H](CCCNC(=N)N)NC(=O)[C@H](CC(C)C)NC(=O)[C@H](CCCNC(=N)N)NC(=O)[C@@H](NC(=O)[C@H](Cc1ccc(O)cc1)NC(=O)[C@H](CC(N)=O)NC(=O)[C@H](CC(=O)O)NC(=O)[C@@H](NC(=O)[C@H](Cc1ccccc1)NC(=O)[C@@H](NC(=O)[C@H](C)NC(=O)[C@H](CC(=O)O)NC(=O)[C@H](CO)NC(=O)[C@@H](N)Cc1cnc[nH]1)C(C)C)[C@@H](C)O)[C@@H](C)O)C(C)C)C(=O)N[C@@H](CCCCN)C(=O)N[C@@H](CC(N)=O)C(=O)N[C@@H](CCCCN)C(=O)N[C@@H](CCCNC(=N)N)C(=O)N[C@@H](Cc1ccc(O)cc1)C(=O)O (some centres not stated)
- Survival (Mus musculus [3]): 50.2%
- Survival (Mus musculus [6]): 69.1%
- Activity (Mus musculus [4]): Dose-dependent effect
- Activity (Mus musculus [5]): Active

SMILES: CC[C@H](C)[C@H](NC(=O)[C@H](C)NC(=O)[C@H](CC(N)=O)NC(=O)CC(CC(C)C)NC(=O)[C@H](Cc1ccc(O)cc1)NC(=O)[C@H](CCCCN)NC(=O)[C@H](CCCCN)NC(=O)CC(NC(=O)[C@H](C)NC(=O)[C@H](CC(C)C)NC(=O)[C@H](CCC(N)=O)NC(=O)CC(CCCCN)NC(=O)[C@H](CCCNC(=N)N)NC(=O)[C@H](CC(C)C)NC(=O)[C@H](CCCNC(=N)N)NC(=O)CC(NC(=O)[C@H](Cc1ccc(O)cc1)NC(=O)[C@H](CC(N)=O)NC(=O)[C@H](CC(=O)O)NC(=O)[C@@H](NC(=O)[C@H](Cc1ccccc1)NC(=O)[C@@H](NC(=O)[C@H](C)NC(=O)[C@H](CC(=O)O)NC(=O)[C@H](CO)NC(=O)[C@@H](N)Cc1cnc[nH]1)C(C)C)[C@@H](C)O)C(C)O)C(C)C)C(=O)NC(CC(=O)N[C@@H](CC(N)=O)C(=O)O)CC(C)C (stereo partly drawn) (H-HSDAVFTDNY[ξβ3hT]RLR[ξβ3hK]QLA[ξβ3hV]KKY[ξβ3hL]NAI[ξβ3hL]N-OH)
- EC50 [1]: 2.17 nM
- EC50 [7]: 10.2 nM
